Test results from ChEMBL document CHEMBL1641593, “Benzothieno[3,2-b]quinolinium and 3-(phenylthio)quinolinium compounds: Synthesis and evaluation against opportunistic fungal pathogens” (Bioorg Med Chem, 2011).
≈ marks a conversion by molar mass, not a printed value. Calls of active or inactive are those of the source. The rule behind the calls is not given here.

Experiments:
Cryptococcus neoformans [1] = experiment: Antifungal activity against Cryptococcus neoformans ATCC 90113 by CLSI method; format: functional, organism-based
Mus musculus [2] = experiment: Toxicity in Cryptococcus neoformans ATCC 52657 infected mouse assessed as decrease in mobility at 10 to 20 mg/kg, ip qd for 5 days after 2 hrs last post dose; format: organism-based; parameters: dose 10-20 mg/kg, route intraperitoneal; conditions: in vivo
Candida albicans [3] = experiment: Antifungal activity against Candida albicans ATCC 90028 at 20 ug/ml by CLSI method; format: functional, organism-based
Mus musculus [4] = experiment: Toxicity in Cryptococcus neoformans ATCC 52657 infected mouse assessed as distension of jejunum at 10 mg/kg, ip qd for 5 days; format: organism-based; parameters: dose 10 mg/kg, route intraperitoneal; conditions: in vivo, 120 h
Mus musculus [5] = experiment: Toxicity in Cryptococcus neoformans ATCC 52657 infected mouse assessed as signs of discomfort at 10 to 20 mg/kg, ip qd for 5 days after 2 hrs last post dose; format: organism-based; parameters: dose 10-20 mg/kg, route intraperitoneal; conditions: in vivo
Mus musculus [6] = experiment: Toxicity in Cryptococcus neoformans ATCC 52657 infected mouse assessed as distension of duodenum at 20 mg/kg, ip qd for 5 days; format: organism-based; parameters: dose 20 mg/kg; conditions: in vivo, other, 120 h
Mus musculus [7] = experiment: Toxicity in Cryptococcus neoformans ATCC 52657 infected mouse assessed as distension of jejunum at 20 mg/kg, ip qd for 5 days; format: organism-based; parameters: dose 20 mg/kg, route intraperitoneal; conditions: in vivo, 120 h
Mus musculus [8] = experiment: Toxicity in Cryptococcus neoformans ATCC 52657 infected mouse assessed as change in body weight at 10 mg/kg, ip qd for 5 days; format: organism-based; parameters: dose 10 mg/kg, route intraperitoneal; conditions: in vivo, 120 h
Mus musculus [9] = experiment: Toxicity in Cryptococcus neoformans ATCC 52657 infected mouse assessed as distension of cecum at 10 mg/kg, ip qd for 5 days; format: organism-based, Caecum; parameters: dose 10 mg/kg, route intraperitoneal; conditions: in vivo, 120 h
Mus musculus [10] = experiment: Toxicity in Cryptococcus neoformans ATCC 52657 infected mouse assessed as enlargement of liver with fusion of hepatic lobes at 20 mg/kg, ip qd for 5 days; format: organism-based; parameters: dose 20 mg/kg, route intraperitoneal; conditions: in vivo, 120 h
Mus musculus [11] = experiment: Toxicity in Cryptococcus neoformans ATCC 52657 infected mouse assessed as distension of duodenum at 10 mg/kg, ip qd for 5 days; format: organism-based; parameters: dose 10 mg/kg; conditions: in vivo, other, 120 h
Mus musculus [12] = experiment: Toxicity in Cryptococcus neoformans ATCC 52657 infected mouse assessed as change in gross pathology of kidney at 10 to 20 mg/kg, ip qd for 5 days; format: organism-based; parameters: dose 10-20 mg/kg, route intraperitoneal; conditions: in vivo, 120 h
Mus musculus [13] = experiment: Toxicity in Cryptococcus neoformans ATCC 52657 infected mouse assessed as change in body weight at 20 mg/kg, ip qd for 5 days; format: organism-based; parameters: dose 20 mg/kg, route intraperitoneal; conditions: in vivo, 120 h
Mus musculus [14] = experiment: Toxicity in Cryptococcus neoformans ATCC 52657 infected mouse assessed as distension of cecum at 20 mg/kg, ip qd for 5 days; format: organism-based, Caecum; parameters: dose 20 mg/kg, route intraperitoneal; conditions: in vivo, 120 h
Mus musculus [15] = experiment: Toxicity in Cryptococcus neoformans ATCC 52657 infected mouse assessed as pathological lesions at 10 mg/kg, ip qd for 5 days; format: organism-based; parameters: dose 10 mg/kg, route intraperitoneal; conditions: in vivo, 120 h
Mus musculus [16] = experiment: Toxicity in Cryptococcus neoformans ATCC 52657 infected mouse assessed as decrease in mobility at 10 to 20 mg/kg, ip qd for 5 days; format: organism-based; parameters: dose 10-20 mg/kg, route intraperitoneal; conditions: in vivo, 120 h
Vero = experiment: Cytotoxicity against african green monkey Vero cells after 48 hrs by neutral red assay; format: cell-based; conditions: Chlorocebus sabaeus
Aspergillus fumigatus [17] = experiment: Antifungal activity against Aspergillus fumigatus ATCC 90906 by CLSI method; format: functional, organism-based
Mus musculus [18] = experiment: Toxicity in Cryptococcus neoformans ATCC 52657 infected mouse assessed as signs of discomfort at 10 to 20 mg/kg, ip qd for 5 days; format: organism-based; parameters: dose 10-20 mg/kg, route intraperitoneal; conditions: in vivo, 120 h
Mus musculus [19] = experiment: Toxicity in Cryptococcus neoformans ATCC 52657 infected mouse assessed as change in gross pathology of spleen at 10 to 20 mg/kg, ip qd for 5 days; format: organism-based; parameters: dose 10-20 mg/kg, route intraperitoneal; conditions: in vivo, 120 h
Aspergillus fumigatus [20] = experiment: Antifungal activity against Aspergillus fumigatus ATCC 90906 at 20 ug/ml by CLSI method; format: functional, organism-based
Candida albicans [21] = experiment: Antifungal activity against Candida albicans ATCC 90028 by CLSI method; format: functional, organism-based
Cryptococcus neoformans [22] = experiment: Antifungal activity against Cryptococcus neoformans ATCC 90113 at 20 ug/ml by CLSI method; format: functional, organism-based
Pichia kudriavzevii = experiment: Antifungal activity against Candida krusei ATCC 6258 by CLSI method; format: functional, organism-based
[23] = Candida albicans, ATCC 90028, read-out: MFC

Compound | IC50 (Cryptococcus neoformans [1]) [µg/mL] | MIC (Cryptococcus neoformans [1]) [µg/mL] | IC50 (Aspergillus fumigatus [17]) [µg/mL] | MIC (Aspergillus fumigatus [17]) [µg/mL] | IC50 (Candida albicans [21]; Candida albicans, ATCC 90028) [µg/mL] | MIC (Candida albicans [21]; Candida albicans, ATCC 90028) [µg/mL] | IC50 (Vero) [µg/mL] | Activity (Cryptococcus neoformans [22]) | other results
C[n+]1c2c(Cl)cccc2cc2sc3ccccc3c21.O=S(=O)([O-])C(F)(F)F | 4 | 10 | 6 | 10 |  |  | > 10 |  | Activity (Mus musculus [2]): Non-toxic; Activity (Candida albicans [3]): inactive; Activity (Mus musculus [4]): Toxic; Activity (Mus musculus [5]): Non-toxic; Activity (Mus musculus [6]): Toxic; Activity (Mus musculus [7]): Toxic; Activity (Mus musculus [8]): Non-toxic; Activity (Mus musculus [9]): Toxic; Activity (Mus musculus [10]): Toxic; Activity (Mus musculus [11]): Toxic; Activity (Mus musculus [12]): Non-toxic; Activity (Mus musculus [13]): Toxic; Activity (Mus musculus [14]): Toxic; Activity (Mus musculus [15]): Non-toxic; Activity (Mus musculus [16]): Toxic; Activity (Mus musculus [18]): Toxic; Activity (Mus musculus [19]): Non-toxic
C[n+]1c2cc(Cl)ccc2cc2sc3ccccc3c21.O=S(=O)([O-])C(F)(F)F | 10 | > 20 |  |  |  |  | > 10 |  | Activity (Candida albicans [3]): inactive; Activity (Aspergillus fumigatus [20]): inactive
C[n+]1c2cccc(O)c2cc2sc3ccccc3c21 |  |  |  |  |  |  |  | inactive | Activity (Candida albicans [3]): inactive; Activity (Aspergillus fumigatus [20]): inactive
C[n+]1c2ccccc2cc2sc3ccccc3c21.O=S(=O)([O-])C(F)(F)F | > 15 | > 20 |  | > 20 | 10 | > 20 | > 23.8 |  | 
C[C@@H]1[C@H](O)[C@@H](C)/C=C/C=C/C=C/C=C/C=C/C=C/C=C/[C@H](O[C@@H]2O[C@H](C)[C@@H](O)[C@H](N)[C@@H]2O)C[C@@H]2O[C@](O)(C[C@@H](O)C[C@@H](O)[C@H](O)CC[C@@H](O)C[C@@H](O)CC(=O)O[C@H]1C)C[C@H](O)[C@H]2C(=O)O [AMPHOTERICIN B] | 1.5 (≈ 1.62 µM) | 2.5 (≈ 2.71 µM) | 1.5 (≈ 1.62 µM) | 2.5 (≈ 2.71 µM) |  | 0.6 (≈ 0.649 µM) |  |  | 
COc1cccc2c1cc1sc3ccccc3c1[n+]2C |  |  |  |  |  |  |  | inactive | 
COc1cccc2cc3sc4ccccc4c3[n+](C)c12.O=S(=O)([O-])C(F)(F)F | 15 | > 20 | 3 | 5 | 15 | > 20 |  |  | 
COc1cccc2c1cc1sc3ccccc3c1[n+]2C.O=S(=O)([O-])C(F)(F)F |  |  | 0.8 | 1.3 | 15 | > 20 | > 4.7 |  | 
C[n+]1c2cccc(Cl)c2cc2sc3ccccc3c21.O=S(=O)([O-])C(F)(F)F |  |  | 3 | 10 |  |  |  | inactive | Activity (Candida albicans [3]): inactive

Now from value to compound, other results behind:

IC50 (Cryptococcus neoformans [1]) [µg/mL] | MIC (Cryptococcus neoformans [1]) [µg/mL] | IC50 (Aspergillus fumigatus [17]) [µg/mL] | MIC (Aspergillus fumigatus [17]) [µg/mL] | IC50 (Candida albicans [21]; Candida albicans, ATCC 90028) [µg/mL] | MIC (Candida albicans [21]; Candida albicans, ATCC 90028) [µg/mL] | Compound | IC50 (Vero) [µg/mL] | Activity (Cryptococcus neoformans [22]) | other results
10 | > 20 | 3 | 5 | 7 | > 20 | COc1cccc2c1sc1cc3ccccc3[n+](C)c12.[I-] | > 10 |  | 
 |  |  |  | 20 | > 20 | C[n+]1c2ccccc2cc2sc3ccc(Cl)cc3c21.[I-] | > 10 | inactive | Activity (Aspergillus fumigatus [20]): inactive
 |  | 8 | 20 |  |  | COc1ccc2sc3cc4ccccc4[n+](C)c3c2c1.[I-] |  | inactive | Activity (Candida albicans [3]): inactive
 |  | 9.5 | > 20 | 2.5 | > 20 | C[n+]1c2ccccc2cc2sc3cc(Cl)ccc3c21.[I-] | > 10 | inactive | 
 |  | 1 | 2.5 | 6 | 20 | COc1ccc2c(c1)sc1cc3ccccc3[n+](C)c12.[I-] |  | inactive | 
1.5 | 5 |  | 1.3 | 5.5 | 10 | [I-].c1ccc(CCCCC[n+]2cc(Sc3ccccc3)cc3ccccc32)cc1 |  |  | MFC (Candida albicans [21]): 20 µg/mL; MFC (Candida albicans [21]; [23]): > 20 µg/mL; MFC (Cryptococcus neoformans [1]): 10 µg/mL; IC50 (Pichia kudriavzevii): 1.5 µg/mL; MFC (Pichia kudriavzevii): 20 µg/mL; MIC (Pichia kudriavzevii): 5 µg/mL; MFC (Aspergillus fumigatus [17]): > 20 µg/mL
15 | > 20 |  | 2.5 | 2 | > 20 | C[n+]1c2ccc(Cl)cc2cc2sc3ccccc3c21.[I-] | > 23.8 |  | 
15 | > 20 | 6.5 | 10 | > 20 | > 20 | C[n+]1c2ccccc2cc2sc3c(Cl)cccc3c21.[I-] |  |  | 
 |  | 1.5 | 2.5 | 15 | > 20 | COc1cccc2c1cc1sc3ccccc3c1[n+]2C.[I-] |  |  | 
12.5 (≈ 53.8 µM) |  |  |  |  |  | C[n+]1c2ccccc2cc2[n-]c3ccccc3c21 [CRYPTOLEPINE] | 3.2 (≈ 13.8 µM) |  | 
0.5 | 1.3 | 8.6 | 10 | 2.7 | 5 | [I-].c1ccc(Sc2cc3ccccc3[n+](CCCCCC3CCCCC3)c2)cc1 | 4.6 |  | MFC (Cryptococcus neoformans [1]): 2.5 µg/mL; IC50 (Pichia kudriavzevii): 0.7 µg/mL; MFC (Pichia kudriavzevii): 2.5 µg/mL; MIC (Pichia kudriavzevii): 1.3 µg/mL; MFC (Aspergillus fumigatus [17]): > 20 µg/mL
 | > 20 |  | > 20 |  | 7.8 | C[n+]1c2ccccc2cc2sc3ccccc3c21.[I-] | > 23.8 |  | 
15 | 20 |  | > 2.5 | 6 | 20 | C[n+]1cc(Sc2ccccc2)cc2ccccc21.[I-] |  |  | MFC (Candida albicans [21]; [23]): > 20 µg/mL; MFC (Cryptococcus neoformans [1]): > 20 µg/mL; MFC (Aspergillus fumigatus [17]): 20 µg/mL
 | 8 | 20 |  | > 20 | > 20 | COc1ccc2c(c1)cc1sc3ccccc3c1[n+]2C.[I-] | > 23.8 |  | 
